What was measured:
[1] = tested on: caterpillars of the armyworm (Spodoptera frugiperda); test: Spodoptera frugiperda test (spray treatment); type: in vivo; conditions: for pest or weed control at 500 g/ha / pest or weed control at 100 g/ha: Spodoptera frugiperda, 168 h, after 7 d, spray treatment, read-out: Kill rate in % after 7 d; for pest or weed control at 500 g/ha: active compound concentration 500 g/ha; for activity (kill of caterpillars): corn leaf disks sprayed, populated with Spodoptera frugiperda caterpillars, result in words; for pest or weed control at 100 g/ha: active compound concentration 100 g/ha
Procedure: Spodoptera Frugiperda Test (Spray Treatment) [table] To produce a suitable preparation of active compound, 1 part by weight of active compound is mixed with, the stated amounts of solvents and emulsifier, and the concentrate is diluted with emulsifier-containing water to the desired concentration. Disks of corn leaves (Zea mays) are sprayed with a preparation of active compound of the desired concentration and, after they have dried, populated with caterpillars of the armyworm (Spodoptera frugiperda). After the desired period of time, the activity in % is determined. 100% means that all caterpillars have been killed; 0% means that none of the caterpillars have been killed.

[2] = tested on: larvae of the mustard beetle (Phaedon cochleariae); test: Phaedon test (spray treatment); type: in vivo; conditions: for activity (kill of beetle larvae): Chinese cabbage disks sprayed, populated with Phaedon cochleariae larvae, result in words; for pest or weed control at 500 g/ha / pest or weed control at 100 g/ha: Phaedon cochleariae, 168 h, after 7 d, spray treatment, read-out: Kill rate in % after 7 d; for pest or weed control at 500 g/ha: active compound concentration 500 g/ha; for pest or weed control at 100 g/ha: active compound concentration 100 g/ha
Procedure: (§1) Phaedon Test (Spray Treatment) [table] To produce a suitable preparation of active compound, 1 part by weight of active compound is mixed with the stated amounts of solvents and emulsifier, and the concentrate is diluted with emulsifier-containing water to the desired concentration. Disks of Chinese cabbage (Brassica pekinensis) are sprayed with a preparation of active compound of the desired concentration and, once they have dried, populated with larvae of the mustard beetle (Phaedon cochleariae). After the desired period of time, the activity in % is determined. 100% means that all beetle larvae have been killed; 0% means that none of the beetle larvae have been killed.

[3] = tested on: green peach aphid (Myzus persicae); test: Myzus test (spray treatment); type: in vivo; conditions: for activity (kill of aphids): Chinese cabbage disks infested by all stages of Myzus persicae, sprayed, result in words; for pest or weed control at 500 g/ha: active compound concentration 500 g/ha
Procedure: as §1, with “Myzus” for “Phaedon”, “pekinensis) which are infested by all stages of the green peach aphid (Myzus persicae)” for “pekinensis)”, “concentration.” for “concentration and, once they have dried, populated with larvae of the mustard beetle (Phaedon cochleariae).”, “aphids” for “beetle larvae”

[4] = tested on: greenhouse red spidermite (Tetranychus urticae); test: Tetranychus test (OP-resistant/spray treatment); type: in vivo; conditions: for pest or weed control at 100 g/ha / pest or weed control at 500 g/ha: Tetranychus urticae, 120 h, after 5 d, OP-resistant, spray treatment, read-out: Kill rate in % after 5 d; for pest or weed control at 100 g/ha: active compound concentration 100 g/ha; for activity (kill of spidermites): bean leaf disks infested by all stages of Tetranychus urticae (OP-resistant), sprayed, result in words; for pest or weed control at 500 g/ha: active compound concentration 500 g/ha
Procedure: Tetranychus Test (OP-Resistant/Spray Treatment)
To produce a suitable preparation of active compound, 1 part by weight of active compound is mixed with the stated amounts of solvents and emulsifier, and the concentrate is diluted with emulsifier-containing water to the desired concentration.
Disks of bean leaves (Phaseolus vulgaris) which are infested by all stages of the greenhouse red spidermite (Tetranychus urticae) are sprayed with a preparation of active compound of the desired concentration.
After the desired period of time, the activity in % is determined. 100% means that all spidermites have been killed; 0% means that none of the spidermites have been killed.

[5] = logP determination by HPLC on reversed-phase column (EEC Directive 79/831 Annex V.A8); type: physicochemical; conditions: reversed-phase C18 HPLC column; acidic range (pH 2.3), marked a); 0.1% aqueous phosphoric acid/acetonitrile gradient; reversed-phase C 18; 43° C.
Procedure: The logP values given in the table were determined in accordance with EEC Directive 79/831 Annex V.A8 by HPLC (High Performance Liquid Chromatography) on a reversed-phase column (C 18). Temperature: 43° C. (a) Mobile phases for the determination in the acidic range (pH 2.3): 0.1% aqueous phosphoric acid, acetonitrile; linear gradient from 10% acetonitrile to 90% acetonitrile—the corresponding measurement results in table 1 are marked a). (b) Mobile phases for the determination in the neutral range (pH 7.5): 0.01-molar aqueous phosphate buffer solution, acetonitrile; linear gradient from 10% acetonitrile to 90% acetonitrile—the corresponding measurement results in table 1 are marked b). Calibration was carried out using unbranched alkan-2-ones (having 3 to 16 carbon atoms) with known logP values (determination of the logP values by the retention times using linear interpolation between two successive alkanones).

Meloidogyne incognita = test: Meloidogyne test (nematicidal action by gall formation on lettuce roots); type: in vivo; conditions: for nematicidal action (formation of galls): Meloidogyne incognita egg/larvae suspension, lettuce, sand, result in words; for pest or weed control at 20 ppm: Meloidogyne incognita, 336 h, active compound concentration 20 ppm, after 14 d, nematicidal action by gall formation, read-out: Effect in % after 14 d
Procedure: Meloidogyne Test [table] To produce a suitable preparation of active compound, 1 part by weight of active compound is mixed with the stated amounts of solvent and emulsifier, and the concentrate is diluted with water to the desired concentration. Containers are filled with sand, solution of active compound, Meloidogyne incognita egg/larvae suspension and lettuce seeds. The lettuce seeds germinate and the plants develop. On the roots, galls are formed. After the desired period of time, the nematicidal action is determined in % by the formation of galls. 100% means that no galls were found; 0% means that the number of galls on the treated plants corresponds to that of the untreated control.

[6] = Myzus persicae, 120 h, after 5 d, spray treatment, read-out: Kill rate in % after 5 d

| Compound | chromatographic logP [5] | pest or weed control at 500 g/ha [1] [%] | activity (kill of caterpillars) [1] | activity (kill of beetle larvae) [2] | activity (kill of aphids) [3] | pest or weed control at 500 g/ha [3, 6] [%] | activity (kill of spidermites) [4] | nematicidal action (formation of galls) (Meloidogyne incognita) | pest or weed control at 20 ppm (Meloidogyne incognita) [%] | further results |
| --- | --- | --- | --- | --- | --- | --- | --- | --- | --- | --- |
| CCC1=NN(C(=O)Nc2ccc(OC(F)(F)F)cc2)C(O)(C(F)(F)F)C1 (stereo not shown) [Example 12] | 3.74 |  |  |  | good activity | 100 |  |  |  |  |
| CCC1=NN(C(=S)Nc2ccc(OC)cc2)C(O)(C(F)(F)F)C1 (stereo not shown) [Example 14] | 3.47 |  |  |  |  |  |  | good activity | 100 |  |
| CCC1=NN(C(=S)Nc2ccccc2Cl)C(O)(C(F)(F)F)C1 (stereo not shown) [Example 15] | 3.85 |  |  |  | good activity | 90 |  |  |  |  |
| CC(C)C1=NN(C(=S)NCCN2CCOCC2)C(O)(C(F)(F)F)C1 (stereo not shown) [Example 43] | 1.45 |  |  |  |  |  |  | good activity | 100 |  |
| CC1=NN(C(=O)Nc2ccc(OC(F)(F)F)cc2)C(O)(C(F)(F)F)C1 (stereo not shown) [Example 46] | 3.35 |  |  |  | good activity | 90 |  |  |  |  |
| CCC1=NN(C(=S)NCc2ccccc2F)C(O)(C(F)(F)F)C1 (stereo not shown) [Example 55] | 3.88 | 100 | good activity | good activity |  |  | good activity |  |  | pest or weed control at 500 g/ha [2]: 100%; pest or weed control at 100 g/ha [4]: 90% |
| Cc1ccc(NC(=O)N2N=C(C(C)(C)C)CC2(O)C(F)(F)F)cc1 (stereo not shown) [Example 70] | 4.05 |  |  |  | good activity |  |  |  |  | pest or weed control at 100 g/ha ([3]; Myzus persicae, 120 h, active compound concentration 100 g/ha, after 5 d, spray treatment, read-out: Kill rate in % after 5 d): 100% |
| CC(C)(C)C1=NN(C(=S)Nc2ccc(Cl)cc2)C(O)(C(F)(F)F)C1 (stereo not shown) [Example 74] | 4.75 |  | good activity | good activity |  |  | good activity |  |  | pest or weed control at 100 g/ha [1]: 100%; pest or weed control at 100 g/ha [2]: 100%; pest or weed control at 100 g/ha [4]: 100% |
| CC(C)(C)C1=NN(C(=S)NCc2ccc(Cl)cc2)C(O)(C(F)(F)F)C1 (stereo not shown) [Example 75] | 4.9 |  | good activity | good activity |  |  | good activity |  |  | pest or weed control at 100 g/ha [1]: 100%; pest or weed control at 100 g/ha [2]: 100%; pest or weed control at 100 g/ha [4]: 100% |
| CC1=NN(C(=S)Nc2c(F)cccc2F)C(O)(C(F)(F)F)C1 (stereo not shown) [Example 100] | 2.91 |  |  |  |  |  |  | good activity | 90 |  |
| CC1=NN(C(=O)Nc2ccc(Cl)cc2)C(O)(C(F)(F)F)C1 (stereo not shown) [Example 114] | 3 |  |  |  |  |  |  | good activity | 90 |  |
| CC1=NN(C(=S)Nc2ccc(Cl)cc2)C(O)(C(F)(F)F)C1 (stereo not shown) [Example 122] |  |  |  |  |  |  |  | good activity | 90 |  |
| CC1=NN(C(=S)NCc2ccc(Cl)cc2)C(O)(C(F)(F)F)C1 (stereo not shown) [Example 123] |  |  |  |  |  |  |  | good activity | 90 |  |

More lines, main results first:

| chromatographic logP [5] | Compound | pest or weed control at 500 g/ha [1] [%] | activity (kill of caterpillars) [1] | activity (kill of beetle larvae) [2] | activity (kill of aphids) [3] | pest or weed control at 500 g/ha [3, 6] [%] | activity (kill of spidermites) [4] | nematicidal action (formation of galls) (Meloidogyne incognita) | pest or weed control at 20 ppm (Meloidogyne incognita) [%] | further results |
| --- | --- | --- | --- | --- | --- | --- | --- | --- | --- | --- |
| 3.86 | CC(C)C1=NN(C(=S)Nc2ccccc2F)C(O)(C(F)(F)F)C1 (stereo not shown) [Example 1, N-(2-fluorophenyl)-5-hydroxy-3-(i-propyl)-5-trifluoromethyl-4,5-dihydro-1H-pyrazole-1-carbothioamide] | 100 | good activity | good activity | good activity | 100 | good activity |  |  | pest or weed control at 500 g/ha [2]: 100%; pest or weed control at 100 g/ha [4]: 90% |
| 3.83 | COc1ccc(NC(=S)N2N=C(C(C)C)CC2(O)C(F)(F)F)cc1 (stereo not shown) [Example 19] |  |  |  |  |  |  | good activity | 100 |  |
| 4.28 | CC(C)C1=NN(C(=S)Nc2ccccc2Cl)C(O)(C(F)(F)F)C1 (stereo not shown) [Example 20] | 100 | good activity |  | good activity | 100 |  |  |  |  |
| 4.6 | CC(C)CC1=NN(C(=S)Nc2ccccc2Cl)C(O)(C(F)(F)F)C1 (stereo not shown) [Example 24] | 100 | good activity |  | good activity | 90 | good activity |  |  | pest or weed control at 500 g/ha [4]: 90% |
| 3.9 | CC(C)C1=NN(C(=S)Nc2ccccc2)C(O)(C(F)(F)F)C1 (stereo not shown) [Example 27] | 100 | good activity | good activity | good activity | 100 | good activity |  |  | pest or weed control at 500 g/ha [2]: 100%; pest or weed control at 100 g/ha [4]: 90% |
| 4.04 | CC(C)C1=NN(C(=S)Nc2ccccc2[N+](=O)[O-])C(O)(C(F)(F)F)C1 (stereo not shown) [Example 31] | 100 | good activity | good activity | good activity | 100 |  |  |  | pest or weed control at 500 g/ha [2]: 100% |
| 4.87 | CC(C)C1=NN(C(=S)Nc2cc(Cl)ccc2Cl)C(O)(C(F)(F)F)C1 (stereo not shown) [Example 33] |  |  | good activity | good activity | 100 |  |  |  | pest or weed control at 500 g/ha [2]: 100% |
| 3.51 | CCC1=NN(C(=S)Nc2ccccc2F)C(O)(C(F)(F)F)C1 (stereo not shown) [Example 40] |  |  |  | good activity | 90 |  |  |  |  |
| 4.58 | CC(C)C1=NN(C(=S)NCc2ccccc2Cl)C(O)(C(F)(F)F)C1 (stereo not shown) [Example 42] | 100 | good activity | good activity | good activity | 100 | good activity |  |  | pest or weed control at 500 g/ha [2]: 100%; pest or weed control at 500 g/ha [4]: 100% |
